Results: patent US20130064899A1, “SYNERGISTIC BIOCIDE COMPOSITION CONTAINING AT LEAST THREE BIOCIDE COMPONENTS” (THOR GMBH, priority 2010, published 2013)
Marks after values point to notes of the source that are not given here.

Legend:
[1] = system: Candida lipolytica (DSM 3286); test: Minimum inhibitory concentration and synergy index in Sabouraud maltose broth, Candida lipolytica; type: cell-based; settings: 72 hours at 25° C.; for SI (synergy index = Qa/QA + Qb/QB): below 1 = synergism
Protocol: (§1) A test was made of the synergism of a combination of BIT, zinc pyrithione or sodium pyrithione, and silver. The test organisms used were the yeasts Candida albicans (DSM 1386) and Candida lipolytica (DSM 3286). For the test, mixtures with different compositions of BIT, zinc pyrithione or sodium pyrithione, and silver were prepared and were tested for their activity on Candida albicans and Candida lipolytica.
(§2) The individual actives or actives mixtures were mixed in serial concentration series with nutrient broth (Sabouraud maltose broth) and inoculated with the respective test organisms. The cell density in the overall batch was in each case 10^6 microbes per ml.
(§3) The incubation time was 72 hours at 25° C. on a shaker at 120 rpm. This was followed by inspection for growth of Candida albicans and Candida lipolytica.
(§4) This method was used to determine the minimum inhibitory concentrations (MICS) of the combination Ag+BIT and ZnPy or NaPy, with Ag and BIT always being present in a 1:20 ratio. The MIC is the concentration at which there is no longer any hazing of the nutrient solution.
(§5) The synergism which occurred was represented numerically by calculation of the synergy index (SI). The calculation was made according to the common method of F. C. Kull et al., Applied Microbiology, vol. 9 (1961), p. 538. The SI variant was given by the following formula:
Synergy index SI=Qa/QA+Qb/QB
When this formula is applied to the BIT+pyrithione+silver biocide system tested here, the variables in the formula have the following definition: • Qa=Concentration of Ag+BIT in the Ag+BIT and ZnPy mixture • QA=Concentration of Ag+BIT as sole biocide • Qb=Concentration of ZnPy in the Ag+BIT and ZnPy mixture • QB=Concentration of ZnPy as sole biocide
If the synergy index has a value of more than 1, this means that antagonism is present. If the synergy index adopts a value of 1, this means that the two biocides have an additive effect.

[2] = system: Candida albicans (DSM 1386); test: Minimum inhibitory concentration and synergy index in Sabouraud maltose broth, Candida albicans; type: cell-based; settings: 72 hours at 25° C.
Protocol: as §1, §2, §3, §4, §5
Synergy index SI=Qa/QA+Qb/QB […]

[3] = concentration of ZnPy in the Ag + BIT and ZnPy mixture, *2 = QB, ZnPy as sole biocide

Molecule	SI (synergy index = Qa/QA + Qb/QB) ([1]; NaPy series)	MIC Qb (NaPy) ([1]; concentration of NaPy in the Ag + BIT and NaPy mixture, *2 = QB, NaPy as sole biocide)	SI (synergy index = Qa/QA + Qb/QB) ([1]; ZnPy series)	MIC Qb (ZnPy) [1, 3]	SI (synergy index = Qa/QA + Qb/QB) ([2]; below 1 = synergism)	MIC Qb (ZnPy) [2, 3]
[Na+].[O-][n+]1ccccc1[S-] [NaPy, sodium pyrithione]	1.00	30*^2 ppm				
zinc pyrithione [ZnPy]			1.00	7.5*^2 ppm	1.00	7.5*^2 ppm
